Source: patent publication US20250000907A1, “ENGINEERED IMMUNE CELLS WITH REDUCED SIRT6 EXPRESSION” (H. LEE MOFFITT CANCER CENTER AND RESEARCH INSTITUTE, INC., priority 2021, published 2025)

Experiments:
activated CD3+ T cells [1] = assay: Western blot analysis of activated T cells; type: cell-based, mouse; conditions: activated T cells, FIG. 8D
Method: Whole cell lysates were prepared using lysis buffer (Pierce RIPA buffer, Thermo Fisher Scientific) supplemented with Complete™ protease inhibitor cocktail and PhosSTOP phosphatase inhibitor cocktail (Roche Applied Science).
Cell lysates (20 μg) or IP samples were loaded onto 10% SDS-PAGE and separated by electrophoresis followed by semi-dry transfer into polyvinylidene fluoride membranes (Immun-Blot® PVDF membrane, Bio-Rad) using Trans-Blot Turbo transfer system (Bio-Rad). After transfer, the membranes were blocked at room temperature with Tris-buffered saline (TBS) containing 0.05% Tween-20 (TBST) and 5% (w/v) non-fat dry milk for 1 hour and then incubated overnight at 4° C. with a specific primary antibody (indicated below). The membranes were washed three times with TBST and then incubated for 1 hour with horseradish peroxidase (HRP)-conjugated goat […] IgG H&L (Abcam, #ab97051, 1:3,000) for regular western blotting analysis, or HRP-conjugated mouse anti-rabbit IgG light-chain specific (Cell Signaling, #93702, 1:1,000) for IP samples. After washing 3 times with TBST, bound antibodies were detected by chemiluminescence using the Pierce™ ECL Western Blotting Substrate and the Super Signal West Femto Maximum Sensitivity Substrate kits (Thermo Fisher Scientific). Image acquisition was performed with the Amersham imager 600 system (GE Healthcare Bio-Sciences).
Immunoblotting was performed using primary antibodies against: Sirt6, H3K9, acetylated-H3K9 and c-Myc (#9402, 1:1,000) from Cell signaling, LDH (#ab52488, 1:5,000), PFKP (#ab204131, 1:2,000), HK1 (#ab150423, 1:1,000), HIF-1α and beta-Actin from Abcam

activated CD3+ T cells [2] = assay: RT-PCR mRNA levels in activated T cells; type: cell-based, mouse
Source text: Total RNA was extracted using the RNeasy Mini Kit (Qiagen; cat. #74106) and reverse transcribed using iScript™ (Biorad). cDNAs were amplified using the “SsoAdvanced™ Universal SYBR® Green Supermix” kit (Biorad) in the CFX Connect™ Real-Time System (Biorad). Sense and antisense primers used were for mouse Sirt6, GLUT1, HK, PFK, LDH, GLS and ASCT2 (primers designed by Biorad and provided as a mixture, PrimePCR™ SYBR® Green Assay).

[3] = test system: human TILs from NSCLC patient tumor samples; assay: Seahorse ECAR of human NSCLC TILs; type: cell-based; conditions: TILs from 6 NSCLC patients, OSS vs. DMSO
Method: Human tumor infiltrating lymphocytes (hTILs) samples isolated from tumor biopsies of patients with non-small cell lung cancer (NSCLC) were generously provided by Moffitt Cancer Center. All human samples remained totally de-identified and no Institutional Review Board (IRB) approval was needed.
(§1) hTILs were maintained in RPMI 1640 Medium, supplemented with 10% human AB serum (Valley Biomedical, Inc.), 1 mM Hepes (Sigma-Aldrich), 1% P/S (Thomas Scientific Inc), 50 μg/ml Gentamicin (ThermoFisher Scientific), 50μM β-mercaptoethanol (ThermoFisher Scientific) and 6000 U/ml of recombinant human IL-2 (Peprotech). For metabolic and functional assays, hTILs were cultured in completed RPMI medium, IL-2 free, on plate-bound anti-CD3 antibody (5 μg/ml; OKT-3, BioXCell) in the presence of vehicle or OSS (Selleck Chemicals) at the indicated concentrations.
Extracellular acidification rate (ECAR) and oxygen consumption rate (OCR) were measured using the Seahorse XF analyzer (Agilent technologies). […] For GST, ECAR and OCR were measured under basal conditions and in response to 10 mM glucose, 1 μM oligomycin and 50 mM 2-DG successively to calculate basal glycolytic rate, glycolytic capacity (in response to oligomycin), and glycolytic reserve (glycolytic capacity-basal rate). […] Results were normalized to total protein quantified using Pierce™ BCA Protein Assay Kit (Thermo Fisher Scientific).

[4] = test system: human TILs from NSCLC patient tumor samples; assay: IFN-γ ELISPOT assay of human NSCLC TILs; type: cell-based; conditions: TILs from 6 NSCLC patients, OSS vs. DMSO
Method: as §1
(§2) The number of IFN-γ producing cells was evaluated in an ELISPOT assay. Briefly, mouse TILs were plated at 1×10^5 cells and co-cultured with 1×10^3 irradiated B16F10 tumor cells (50 Gray) in the presence of the indicated concentrations of OSS, in a 96-well nitrocellulose flat-bottomed plate (ELISPOT plate, Millipore) pre-coated with an anti-mouse IFN-γ antibody (AN-18, Mabtech, Inc.) and incubated for 48 hr at 37° C. […] After washing steps and successive biotinylated anti-IFN-γ antibody (R4-6A2, Mabtech, Inc.) and Streptavidin-HRP (BD Bioscience) labeling, spots were detected using AEC Substrate Kit (BD Biosciences) and counted using an AID ELISPOT Reader System (Autoimmun Diagnostika GmbH).

[5] = test system: patient-derived human NSCLC tumor cells; assay: LDH cytotoxic assay of human NSCLC TILs co-cultured with autologous tumor cells; type: cell-based; conditions: ex vivo expanded autologous TILs co-cultured with patient-derived NSCLC tumor cells
Method: Evaluation of functional cytotoxic activity was performed using Pierce™ LDH Cytotoxicity Assay Kit (Thermo Fisher Scientific) according to the manufacturer's protocol. B16F10 cells or human NSCLC autologous tumor cells were used as target cells. Mouse CD8+ enriched T cells from gp100-stimulated Pmel splenocytes or human NSCLC TILs were used as effector cells. Target tumor cells were co-cultured with effector cells in 96-well round-bottom microplates at the indicated effector:target ratios with and without Sirt6 inhibitor. After 6 hr, the percentage of specific LDH release was calculated according to the following formula: % cell lysis=(experimental value−effector cells spontaneous release−target cells spontaneous release)×100/(target cells maximum release−target cells spontaneous release), where “experimental” corresponds to the experimental signal value, “effector spontaneous” to spontaneous release of LDH from effector cells alone, “target spontaneous” to spontaneous release of LDH from target cells alone and “maximum release” to the maximum release of LDH from target cells in medium containing 1% Triton X-100.

[6] = test system: stimulated CD8+ T cells from WT vs. Sirt2−/− Pmel mice; assay: Seahorse ECAR of stimulated CD8+ T cells from WT vs. Sirt2−/− Pmel mice; type: cell-based, mouse; conditions: FIG. 3B
Method: (§3) FIG. 3: Sirtuins in the immune system. A, WB of Sirt1-3,5-7 expression in activated CD3+ T cells from WT vs. Sirt2−/− mice. ECAR measured by Seahorse analyzer (B) and IFN-γ ELISPOT assay (C) in stimulated CD8+ T cells from WT vs. Sirt2−/− Pmel mice treated with vehicle (Ctl), or Sirt6 inhibitor (Sirt6i). *P<0.05, **P<0.01, ****P<0.0001.
Extracellular acidification rate (ECAR) and oxygen consumption rate (OCR) were measured using the Seahorse XF analyzer (Agilent technologies). Glycolysis Stress Test (GST) and mitochondrial stress test (MST) were purchased from Agilent technologies and performed according to the kit manufacturer's instructions. […] For GST, ECAR and OCR were measured under basal conditions and in response to 10 mM glucose, 1 μM oligomycin and 50 mM 2-DG successively to calculate basal glycolytic rate, glycolytic capacity (in response to oligomycin), and glycolytic reserve (glycolytic capacity-basal rate). For MST, OCR and ECAR were measured under basal conditions and in response to sequential injections of 1 μM oligomycin, 1 μM FCCP (Carbonyl cyanide 4-trifluoromethoxyphenylhydrazone) and 0.5 μM rotenone/antimycin A to calculate basal respiration rates (baseline OCR-rotenone/antimycin A OCR), maximal respiration (FCCP OCR-rotenone/antimycin A OCR), and oxidative reserve (maximum respiration rate-basal respiration rate). […]

[7] = test system: stimulated CD8+ T cells from WT vs. Sirt2−/− Pmel mice; assay: IFN-γ ELISPOT assay of stimulated CD8+ T cells from WT vs. Sirt2−/− Pmel mice; type: cell-based, mouse; conditions: FIG. 3C
Method: as §3
as §2, with “C. For Pmel T cells, splenocytes were first stimulated with gp100 (1 μg/ml, Anaspec) for 48 hr in the presence of the indicated concentrations of OSS and then transferred to the ELISPOT plate pre-coated with an anti-mouse IFN-γ antibody (AN-18, Mabtech, Inc.) for an additional 48 hr.” for “C.”

[8] = activated CD3+ T cells, FIG. 8K
[9] = activated T cells, Sirt6i vs. vehicle

## O=C(Nc1ccc(O)c(C(=O)O)c1)c1cccc(NC(=O)c2ccco2)c1 [OSS_128167]
Activated CD3+ T cells [1]
  c-Myc expression levels: no effect
Activated CD3+ T cells [2]; [8]
  mRNA expression levels of glutaminase (GLS): increased
  mRNA expression levels of glutamine transporter (ASCT2): increased
Activated CD3+ T cells [2]; activated T cells, FIG. 8G
  mRNA expression levels of glucose transporter (Glut1): increased
  mRNA expression levels of hexokinase (HK1): increased
  mRNA expression levels of lactate dehydrogenase A (LDHA): increased
  mRNA expression levels of phosphofructokinase P (PFKP): increased
[3]
  aerobic glycolysis (basal glycolysis, glycolytic capacity): increased
[4]
  IFN-γ production: increased
[5]
  TIL cytotoxic activity: enhanced
[6]; Sirt2−/− Pmel CD8+ T cells
  effect on metabolic activity (ECAR) with Sirt2 deficiency: potentiated
[6]; [9]
  metabolic activity of T cells (ECAR): increases
[7]; Sirt2−/− Pmel CD8+ T cells
  effect on effector function (IFN-γ ELISPOT) with Sirt2 deficiency: potentiated
[7]; [9]
  effector function of T cells (IFN-γ ELISPOT): increases
